Starred links: 1 amine or outer side, 2 acyl side, 3 side chain; linkers in the order of their positions; H or OH if unused. Positions of bridges follow the written chain, without caps; N, C: chain ends. Non-standard residues stand in square brackets, D forms with d. Residues, ends and D or L forms follow the SMILES beside them. Adda = CO[C@@H](Cc1ccccc1)[C@@H](C)/C=C(C)/C=C/[C@H](N[*:1])[C@H](C)C(=O)[*:2]; dAsp(3S-Me) = C[C@H](C(=O)[*:3])[C@@H](N[*:1])C(=O)[*:2]; d(γGlu) = O=C(O)[C@@H](CCC(=O)[*:2])N[*:1]; NMeDha = C=C(NC)C(=O)O
How the values were obtained:
NCI-H358 = test: Anticancer activity against human NCI-H358 cells; type: functional
[1] = biological target: T1, Serine/threonine-protein phosphatase 5 (Homo sapiens) (UniProt P53041); test: Inhibition of human full length PP5 expressed in Escherichia coli Rosetta gami2(DE3)pLysS at >1 x 10^6nM relative to control; settings: dose > 1.0 10^6nM
T1 sequence (whole entry): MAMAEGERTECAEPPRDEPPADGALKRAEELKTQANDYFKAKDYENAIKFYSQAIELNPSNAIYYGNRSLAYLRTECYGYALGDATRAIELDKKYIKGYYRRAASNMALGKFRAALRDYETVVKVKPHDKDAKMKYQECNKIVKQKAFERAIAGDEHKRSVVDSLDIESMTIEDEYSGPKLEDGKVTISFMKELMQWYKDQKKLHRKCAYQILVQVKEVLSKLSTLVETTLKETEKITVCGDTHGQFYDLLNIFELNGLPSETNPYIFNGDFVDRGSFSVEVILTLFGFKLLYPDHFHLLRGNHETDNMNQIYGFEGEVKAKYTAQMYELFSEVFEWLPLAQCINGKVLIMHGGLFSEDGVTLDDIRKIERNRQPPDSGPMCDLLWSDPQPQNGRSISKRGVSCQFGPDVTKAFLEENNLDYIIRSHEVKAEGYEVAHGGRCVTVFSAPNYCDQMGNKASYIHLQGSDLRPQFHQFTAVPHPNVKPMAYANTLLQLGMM

[2] = Inhibition of PP7 (unknown origin); parameters: species or system Homo sapiens
[3] = biological target: T2, Serine/threonine-protein phosphatase 6 catalytic subunit (Homo sapiens, UniProt O00743); test: Inhibition of PP6 (unknown origin)
T2 sequence (O00743 whole entry): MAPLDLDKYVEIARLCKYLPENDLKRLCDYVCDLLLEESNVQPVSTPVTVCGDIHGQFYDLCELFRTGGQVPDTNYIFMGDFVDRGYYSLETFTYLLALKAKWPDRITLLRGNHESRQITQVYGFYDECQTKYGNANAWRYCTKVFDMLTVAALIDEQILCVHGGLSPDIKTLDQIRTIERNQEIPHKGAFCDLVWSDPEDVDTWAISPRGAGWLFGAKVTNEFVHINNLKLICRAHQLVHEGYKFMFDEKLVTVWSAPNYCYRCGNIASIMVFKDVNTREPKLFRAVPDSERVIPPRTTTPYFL

[4] = Inhibition of porcine testis PP4; parameters: species or system Sus scrofa
[5] = biological target: T3, Serine/threonine-protein phosphatase 5 (Homo sapiens, UniProt P53041); test: Inhibition of PP5 (unknown origin)
T3 sequence (P53041 whole entry): T1 sequence (whole entry)

[6] = Inhibition of rabbit skeletal muscle PP2A using [3H]-phosphohistone as substrate; parameters: species or system Oryctolagus cuniculus
[7] = Inhibition of rabbit skeletal muscle PP1 using [3H]-phosphohistone as substrate; parameters: species or system Oryctolagus cuniculus
[8] = Inhibition of PP3 activity in human Jurkat J77 cells assessed as dephosphorylation of substrate; type: cell-based
[9] = Inhibition of PP3 (unknown origin); parameters: species or system Homo sapiens
[10] = Inhibition of PP2A (unknown origin) using [3H]-phosphohistone as substrate by liquid scintillation counting analysis; parameters: species or system Homo sapiens
[11] = Inhibition of PP4 (unknown origin); parameters: species or system Homo sapiens
[12] = Inhibition of PP4 (unknown origin) using [3H]-phosphohistone as substrate by liquid scintillation counting analysis; parameters: species or system Homo sapiens
[13] = Inhibition of PP3 (unknown origin) using [3H]-phosphohistone as substrate by liquid scintillation counting analysis; parameters: species or system Homo sapiens
[14] = biological target: T2, Serine/threonine-protein phosphatase 6 catalytic subunit; test: Inhibition of PP6 (unknown origin) using [3H]-phosphohistone as substrate by liquid scintillation counting analysis
[15] = biological target: T3, Serine/threonine-protein phosphatase 5; test: Inhibition of human PP5 using [3H]-phosphohistone as substrate
[16] = biological target: T4, Serine/threonine-protein phosphatase 2A catalytic subunit alpha isoform (Homo sapiens, UniProt P67775); test: Inhibition of human PP2AC using [3H]-phosphohistone as substrate
T4 sequence (P67775 whole entry, canonical isoform): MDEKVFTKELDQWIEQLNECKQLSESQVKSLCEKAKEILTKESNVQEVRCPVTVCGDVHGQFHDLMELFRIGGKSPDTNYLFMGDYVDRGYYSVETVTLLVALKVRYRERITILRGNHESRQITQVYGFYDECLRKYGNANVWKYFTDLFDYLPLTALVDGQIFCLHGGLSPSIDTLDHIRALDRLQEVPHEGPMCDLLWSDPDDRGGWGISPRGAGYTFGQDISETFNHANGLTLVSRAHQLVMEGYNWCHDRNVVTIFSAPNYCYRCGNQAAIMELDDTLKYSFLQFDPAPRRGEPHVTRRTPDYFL

[17] = Inhibition of PP7 (unknown origin) using [3H]-phosphohistone as substrate by liquid scintillation counting analysis; parameters: species or system Homo sapiens
[18] = Inhibition of PP1 (unknown origin) using [3H]-phosphohistone as substrate by liquid scintillation counting analysis; parameters: species or system Homo sapiens
[19] = biological target: T3, Serine/threonine-protein phosphatase 5; test: Inhibition of PP5 (unknown origin) using [3H]-phosphohistone as substrate by liquid scintillation counting analysis
[20] = biological target: T1, Serine/threonine-protein phosphatase 5 (Homo sapiens); test: Activation of PP5 (unknown origin) assessed as fold increase in activity at > 100000 nM relative to control; settings: filed as activator
[21] = biological target: T3, Serine/threonine-protein phosphatase 5; test: Activation of recombinant human PP5 (16 to 499 residues) Escherichia coli BL21 (DE3) using pNPP incubated for 60 mins
Homo sapiens = species on record: Homo sapiens; test: Activation of PP2A (unknown origin) at 1000 nM relative to control; settings: filed as activator
[22] = Inhibition of PP1 (unknown origin); parameters: species or system Homo sapiens
[23] = biological target: T4, Serine/threonine-protein phosphatase 2A catalytic subunit alpha isoform; test: Inhibition of PP2A (unknown origin)
[24] = Inhibition of porcine PP4 using [33P]-labelled substrate; parameters: species or system Sus scrofa

With `O=S(=O)(N[C@@H]1CCC[C@H](N2c3ccccc3Oc3ccccc32)[C@H]1O)c1ccc(OC(F)(F)F)cc1` the GI50 (NCI-H358) was 5 10^3nM.
`Nc1ccc(-c2nc3ccc(-c4nc5ccc(N)cc5[nH]4)cc3[nH]2)cc1` showed an inhibition [1] of 40%.
With `C=C1[C@@H](O)[C@@H]2O[C@]3(CC[C@H](/C=C/[C@H](C)[C@@H]4CC(C)=C[C@@]5(OC(C[C@@](C)(O)C(=O)O)CC[C@H]5O)O4)O3)CC[C@H]2O[C@@H]1[C@@H](O)C[C@H](C)[C@H]1O[C@@]2(CCCCO2)CC[C@H]1C` (some centres undefined) the IC50 [2] was over 1000 nM, the IC50 [3] was 1 nM and the IC50 [4] was 0.1 nM. For the same compound, the IC50 [5] was 3.5 nM, the IC50 [6] was 0.94 nM and the IC50 [7] was 0.23 nM.
With `C=CC[C@@H]1/C=C(\C)C[C@H](C)C[C@H](OC)[C@H]2O[C@@](O)(C(=O)C(=O)N3CCCC[C@H]3C(=O)O[C@H](/C(C)=C/[C@@H]3CC[C@@H](O)[C@H](OC)C3)[C@H](C)[C@@H](O)CC1=O)[C@H](C)C[C@@H]2OC` [TACROLIMUS ANHYDROUS] the IC50 [8] was 0.4 nM.
Work on `CO[C@H]([C@H](O)CC(=O)[C@@H](C)[C@@H](O)CC[C@@H](C)[C@@H]1O[C@]2(CC[C@@H](C)[C@H](CC[C@H](C)C(C)=O)O2)CC[C@@H]1C)[C@H](OC(=O)C[C@@H](O)C1=C(C)C(=O)OC1=O)C(C)C` [TAUTOMYCIN] yielded an IC50 [9] of over 1000 nM, an IC50 [10] of 5.3 nM and an IC50 [5] of 10 nM. It also gave an IC50 [7] of 0.038 nM and an IC50 [11] of 0.4 nM.
`COC[C@@H]([C@H](O)[C@H](O)C(=O)NCC[C@H](C)c1nc(/C=C/C[C@@H]2O[C@]3(C[C@@H](O)[C@@H]2C)O[C@H]([C@H](C[C@H](O)[C@H](C)[C@H](O)[C@H](C)/C=C(C)/C(C)=C/C=C/C(C)=C\C#N)OC)[C@H](OP(=O)(O)O)C3(C)C)co1)N(C)C` [CALYCULIN A] gave an IC50 [12] of 0.2 nM, an IC50 [10] of 1.5 nM and an IC50 [13] of over 1000 nM. The IC50 [14] was 10 nM, the IC50 [15] was 3 nM and the IC50 [16] was 0.25 nM.
Compound `C=C1C(=O)N[C@H](C)C(=O)N[C@@H](CC(C)C)C(=O)N[C@@H](C(=O)O)[C@H](C)C(=O)N[C@@H](CCCNC(=N)N)C(=O)N[C@@H](/C=C/C(C)=C/[C@H](C)[C@H](Cc2ccccc2)OC)[C@H](C)C(=O)N[C@@H](C(=O)O)CCC(=O)N1C` [MICROCYSTIN-LR] (R[Adda][d(γGlu)][NMeDha][dA]L[dAsp(3S-Me)]-OH; lactam N-7) has an IC50 [9] of 200 nM, an IC50 [4] of 0.15 nM and an IC50 [5] of 1 nM. For the same compound, the IC50 [6] was 0.1 nM and the IC50 [7] was 10 nM.
Compound `C/C=C1/C(=O)N[C@H](OC(=O)O)[C@H](C)C(=O)N[C@@H](CCCNC(=N)N)C(=O)N[C@@H](/C=C/C(C)=C/[C@H](C)[C@H](Cc2ccccc2)OC)[C@H](C)C(=O)N[C@H](OC(=O)O)CCC(=O)N1C` has an IC50 [17] of over 1000 nM, an IC50 [10] of 0.04 nM and an IC50 [13] of over 1000 nM. For the same compound, the IC50 [18] was 1.7 nM.
`C[C@@](O)(/C=C/[C@H]1CC=CC(=O)O1)[C@@H](C[C@@H](O)\C=C/C=C\C=C\CO)OP(=O)(O)O` [FOSTRIECIN] showed an IC50 [12] of 3 nM, an IC50 [13] of over 100000 nM and an IC50 [19] of over 10000 nM.
For `C=C/C(=C/C(=O)C[C@H](C)C[C@@H](C)CC[C@H](O)[C@H](C)C(=O)C[C@@H](O)[C@@H](C)[C@@H](C)OC(=O)C[C@@H](O)C1=C(C)C(=O)OC1=O)CC`, the IC50 [12] was 44.4 nM, the IC50 [13] was 17500 nM and the IC50 [18] was 0.4 nM. For the same compound, the IC50 [19] was 11.9 nM.
`COc1ccc(-c2nc(Cc3ccc(Cl)cc3)no2)cc1OC` showed a fold change (FC) [20] of 4.
Work on `CCCCC/C=C\C/C=C\C/C=C\C/C=C\CCCC(=O)O` [ARACHIDONIC ACID] yielded an EC50 [21] of 78000 nM.
`CCCCCCCCc1ccc(CCC(N)(CO)CO)cc1` showed an Activity (Homo sapiens) of 175%.
Work on `C[C@@]12C(=O)OC(=O)[C@]1(C)[C@H]1CC[C@@H]2O1` [CANTHARIDIN] yielded an IC50 [9] of over 500000 nM, an IC50 [22] of 1700 nM and an IC50 [3] of 8000 nM. For the same compound, the IC50 [15] was 400 nM, the IC50 [5] was 600 nM and the IC50 [23] was 160 nM. The IC50 [24] was 50 nM.
For `O=C(O)CCCCCCCCCCCC[C@@H]1C=CCC1` [CHAULMOOGRIC ACID], the EC50 [21] was 130000 nM.
For `CN1CCN(C(=O)C2C(C(=O)O)C3CC[C@@H]2O3)CC1` (single isomer, unassigned), the IC50 [22] was 2.4 nM and the IC50 [16] was 400 nM.

Source: ChEMBL document CHEMBL5226315, “Strategies for Targeting Serine/Threonine Protein Phosphatases with Small Molecules in Cancer” (J Med Chem, 2021)
